From patent publication US20090233307A1, “METHODS FOR DETECTION OF SINGLE STRAND BREAKS IN DNA” (The University of North Carolina at Chapel Hill, priority 2008, published 2009)

How the values were obtained:
DT40 cells = experiment: SSB repair through NAD(P)H depletion, DT40 cells; assay type: cell-based, chicken; conditions: 1 mM MMS for up to 4 hours, DT40 cells
Procedure: SSB repair capacity was determined by a real-time colorimetric assay that measures intracellular NAD(P)H levels (Tano et al., DNA Repair, 6, 869-875 (2007)). PARP-1 activation during SSB repair leads to NAD^+ consumption, which can be indirectly monitored through NAD(P)H depletion (Nakamura et al., Nucleic Acids Res., 31, e104 (2003)). Briefly, 5×10^3 cells/well were seeded into a 96-well plate. After a 30 minute incubation period, the cells were treated with 1 mM MMS quickly followed by the addition of a dye containing XTT (Sigma) and 1-methoxy PMS (Sigma). For up to 4 hours, the NAD(P)H-dependent conversion of the XTT tetrazolium salt to a yellow colored formazan dye was measured spectrophotometrically. Decreases in intracellular NAD(P)H levels were determined through comparison of values to those of the PBS control. Established methods for detecting SSBs have not been adequately characterized for pH effects on DNA structure and chemistry and also lack a high specificity for SSBs, primarily because of artifactual SSB formation. […] The accumulation of SSBs leads to PARP-1 over-activation and the consumption of NAD+, which is indirectly monitored in living cells through the measurement of intracellular NAD(P)H depletion using tetrazolium salts, such as XTT, during chemical exposure (Tano et al., DNA Repair, 6, 869-875 (2007)). […]

Pol β null cells = assay type: cell-based, chicken
Procedure: DT40 and Pol β null cells were seeded into 100 cm dishes and allowed to divide overnight to reach the density of 1×10^6 cells/mL. Cells were exposed to a continuous treatment of 1 mM methyl methanesulfonate (MMS; Aldrich) for up to 4 hours. Control cells received 1× phosphate buffered saline (PBS) for 0.5 hour. After incubation, cells were harvested, washed with chilled 1× PBS, pelleted, and stored at −80° C. until DNA isolation. Using this protocol, DT40 cells were also incubated in the absence of chemical to obtain a stock of untreated DNA.

[1] = system: Chinese hamster ovary (CHO) AA8 cells; experiment: OTX-coupled comet assay; assay type: cell-based; conditions: 10 minute exposure to 1 mM MMS, CHO AA8
Procedure: Chinese hamster ovary (CHO) AA8 cells were seeded at a concentration 0.5×10^6 cell/mL into several 10 cm culture dishes with 10 mL of MEM-α media (Gibco) supplemented with 10% fetal bovine serum (heat inactivated; Sigma), 100 μg/mL penicillin, and 100 μg/mL streptomycin. These were allowed to grow for 48 hours at 37° C. and 5% CO2. Culture dishes were about 80-85% confluent at harvest.
Before cells were harvested for use in the comet assay, the lysis solution (2.5 M NaCl, 100 mM Na2-EDTA, 10 mM Trizma, pH 10) was completed with the addition of 10% (v/v) DMSO and 1% (v/v) Triton X-100, mixed thoroughly, and refrigerated at 4° C. A 0.5% solution of low melting point agarose (LMPA) was also prepared and allowed to equilibrate to 37° C. in a water bath. Partially frosted microscope slides, pre-coated several days before with 50 μL of 1% normal melting point agarose (NMPA), were labeled and set aside.
Prior to cell harvest, the media was removed and each dish was washed with 10 mL of 1×PBS. An additional 2 mL of 1×PBS was added to each dish and the cells were harvested using a rubber policeman. Harvested cells were combined into 15 mL centrifuged tubes and gently mixed by pipetting to obtain a homogenous cell sample. The cell count was obtained using a hemacytometer. The volume of cell sample needed to obtain 11,000 cells per slide to be prepared was added to a new 15 mL centrifuge tube and centrifuged for 5 minutes at 1,100 RPM. The supernatant was removed and the cell pellet resuspended in 1×PBS at a volume equal to 10 μL per slide to be prepared (e.g. 5 slides×10 μL per slide=50 μL 1×PBS total).
For each slide to be prepared, 10 μL of the cell sample was added to a 1.5 mL centrifuge tube. The cell layer of the slide was created by first gently mixing 100 μL of the 0.5% LMPA with the 10 μL of cell sample in the tube. This mixture was then added to a pre-coated slide and a coverslip placed onto the slide to create a thin layer of the cell mixture. Slides with cell layers were then refrigerated at 4° C. for 15 minutes to solidify the gel. After this incubation, the initial coverslips were removed and an additional 150 μL of 0.5% LMPA was added to each slide. A fresh coverslip was placed onto each slide to create a thin top layer and the slides were refrigerated for another 15 minutes. After removing the coverslip, completed slides that were receiving MMS treatment were placed in a slide chamber containing warmed MEM-α media with 1 mM MMS for 10 minutes. The slide chamber was kept warm by placing it within an incubator held at 37° C. After the 10 minutes, the slides were washed with 1×PBS for 5 minutes at room temperature and then transferred to slide chambers containing the chilled lysis solution. […]

COS(C)(=O)=O [MMS, methyl methanesulfonate]
intracellular NAD(P)H levels (DT40 cells): time-dependent decrease in intracellular NAD(P)H levels | AP site formation (ASB assay) compared with parental DT40 cells (Pol β null cells): more massive AP site formation | AP sites (ASB assay) compared to control (Pol β null cells; chicken, 1 mM): time-dependent, significant (p<0.01 for all time points, student t-test) increase in AP sites | tail moment compared to the untreated control (no MMS) [1]: significant difference in tail moment
